In patent US4824955A, “Selenium oxy chloride-pyridine or bipyridine complexes” (Nippon Kayaku Kabushiki Kaisha, priority 1985, dated 1989):
Values joined by “and” are separate entries in the source; they are usually repeats but may differ in a detail not shown here. Equal values may be shown once. Read-outs that look alike come from different tables or passages of the source.

Key:
[1] = intraperitoneal, once a day, 7 days, mice
Enrlich carcinoma = assay: Antineoplastic activity against Enrlich carcinoma (life prolongation rate); format: in vivo, 5-week-old ICR mice (male); conditions: for response vs control in vivo at 16 mg/kg: Mus musculus, ip, 1440 h, read-out: Life prolongation rate (T/C %)
Experimental: Approximately 10^6 cells/0.2 ml of Enrlich carcinoma were inoculated into the abdominal cavity of each of the 5-week-old ICR mice (male) used for the test, and the test compounds were administered intraperitoneally to the mice of the treated group once a day for a period of 7 days, starting from the day after said inoculation. The mice of the control group was administered with a saline solution in the same way. Observation of the animals of both groups was continued for 60 days after the administration, and the life prolongation rate (T/C%, T/C×100) was determined from the average duration (days) of life of the mice of the treated group (T) and that of the mice of the control group (C).

in vivo = conditions: mouse, ip, LD50, intraperitoneal, once a day, 7 days, mice
[2] = test system: Salmonella typhimurium TA-98; assay: Antimutagenic activity, Ames method, against mutagenic action of benzpyrene; format: cell-based; conditions: with B(α)P and S-9 mix
Experimental: The antimutagenic activity was examined according to the Ames method by using Salmonella typhimurium TA-98 as test bacterium and Benzo(α)pyrene (B(α)P) as (TA-98) mutagen.
To a solution of 5 μg of B(α)P and a proper amount of a compound of this invention in 0.1 ml of DMSO were added 0.5 ml of S-9 mix and 0.1 ml of a TA-98 suspension, and the mixture was subjected to preincubation at 37° C. for 20 minutes.
This preincubated mixture was further added with 2 ml of soft agar, and after sufficient mixing, the mixture was uniformly spread on a gluclose minimum agar medium plate and incubated at 37° C. for 48 hours. Thereafter, the number of the colonies produced by reverse mutation was counted.
The number of the colonies existing in the medium containing neither B(α)P nor the compound of this invention was given as background.
The antimutagenic activity was determined as a mutation inhibition rate from the following formula: [formula]

[3] = 2.0 mg/kg/day, intraperitoneal, once a day, 7 days
[4] = 4.0 mg/kg/day, intraperitoneal, once a day, 7 days
[5] = 8.0 mg/kg/day, intraperitoneal, once a day, 7 days

Structure (SMILES): c1ccc(-c2ccccn2)nc1 [Compound 2-13, Tetrachloroselenium-2,2'-dipyridinyl (1:2) complex]
- LD50 [1]: > 16 mg/kg/day × 7
- Life prolongation rate (T/C %) (Enrlich carcinoma; [3]): 152%
- Life prolongation rate (T/C %) (Enrlich carcinoma; [4]): 180%
- Life prolongation rate (T/C %) (Enrlich carcinoma; [5]): 185%
- response vs control in vivo at 16 mg/kg (Enrlich carcinoma; intraperitoneal, (Note 5) administered for 6 days): 97%

Structure (SMILES): Cn1cnc2ccccc21 [Compound 1-40, Selenium oxychloride-N-methylbenzimidazole (1:1) complex]
- LD50 [1]: 8-16 mg/kg/day × 7
- Life prolongation rate (T/C %) (Enrlich carcinoma; [3]): 214%
- Life prolongation rate (T/C %) (Enrlich carcinoma; [4]): 230%
- Life prolongation rate (T/C %) (Enrlich carcinoma; [5]): 243%
- response vs control in vivo at 16 mg/kg (Enrlich carcinoma; intraperitoneal, (Note 2) administered for 2 days): 123%

Structure (SMILES): c1ccncc1 [Compound 2-1, Tetrabromoselenium-pyridine (1:2) complex]
- LD50 [1]: > 16 mg/kg/day × 7
- Life prolongation rate (T/C %) (Enrlich carcinoma; mouse, in vivo): 185% and 171% and 222% and 146%

Structure (SMILES): c1ccc(-c2ccccn2)nc1 [Compound 1-41, Selenium oxychloride-2,2'-dipyridyl (1:1) complex]
- LD50 (in vivo): 8 to 16 mg/kg
- Inhibition rate (mutation inhibition rate) ([2]; 0.5 μg/plate): 22.6
- Number of colonies ([2]; 0.5 μg/plate): 238
- Inhibition rate (mutation inhibition rate) ([2]; 1 μg/plate): 24.2
- Number of colonies ([2]; 1 μg/plate): 234
- Inhibition rate (mutation inhibition rate) ([2]; 5 μg/plate): 33.6
- Number of colonies ([2]; 5 μg/plate): 209
- Inhibition rate (mutation inhibition rate) ([2]; 10 μg/plate): 56.2
- Number of colonies ([2]; 10 μg/plate): 149
- Inhibition rate (mutation inhibition rate) ([2]; 50 μg/plate): 67.5
- Number of colonies ([2]; 50 μg/plate): 119
- Inhibition rate (mutation inhibition rate) ([2]; 100 μg/plate): 76.2
- Number of colonies ([2]; 100 μg/plate): 96
- Inhibition rate (mutation inhibition rate) ([2]; 500 μg/plate): 100
- Number of colonies ([2]; 500 μg/plate): 16
- Life prolongation rate (T/C %) (Enrlich carcinoma; [3]): 230%
- Life prolongation rate (T/C %) (Enrlich carcinoma; [4]): 237%
- Life prolongation rate (T/C %) (Enrlich carcinoma; [5]): 312%
